Patent US20250313555A1, “2-SUBSTITUTED THIAZOLE AND BENZOTHIAZOLE COMPOSITIONS AND METHODS AS DUX4 INHIBITORS” (ALTAY THERAPEUTICS, INC., priority 2022, published 2025)

Legend:
Format in all cases: cell-based
[1] = Cell cytotoxicity 50 assay (CC50), HEK cells; settings: human
Description: (§1) Cell Cytotoxicity 50 Assay Protocol (CC50) Into a deep well block (DWB), the media for the appropriate cell line (450 μL/well) was added into wells 1-10. Into DWB well 2, 10 mM of drug solution (13.5 μL) was added, followed by an additional volume of the medium (225 μL). The well was pipetted up/down four times. A portion (225 μL) was transferred to well 3, and this process was repeated up to well 10. Using a multichannel pipet, a smaller portion (50 μL/well) was removed from all wells in the DWB and then dispensed on top of the cells in each corresponding row. After adding the drug, the plate was incubated at 37° C. for 72 h. Using a multi-channel pipet, pre-warmed cell titer glo reagent (Promega) (100 μL) was added into every well. After 5 minutes, the total luminescence was measured with a luminometer. CC50 was determined with GraphPad prism template.

[2] = test system: MBD3L2 RNA; assay: RNA isolation and qPCR to determine MBD3L2 RNA levels in FSHD cells; settings: 48 hrs
Description: Protocol for RNA Isolation and qPCR to Determine MBD3L2 RNA Levels The protocol describes the process of isolating RNA from cultured cells, converting the RNA to complementary DNA (cDNA), and measuring target gene expression using a quantitative polymerase chain reaction (qPCR). The seed FSHD cells were dispensed into a six-well dish. One day after seeding, the DUX4 inhibitor (11 μM or 3.6 μM/well) was added to the cells. After another 48 hrs, the old media was removed from the cells. The cells were washed with 2 mL of warm phosphate buffered saline (PBS). The PBS was aspirated, and the cells were lysed in each well with 350 μL of RLT buffer+3.5 μL of beta-mercaptoethanol (BME). The lysates were added to fresh, RNAse-free, labeled Eppendorf tubes. The cells were then physically disrupted for […] at level 4 of the bead disrupter to ensure the release of the RNA. The RNA was collected according to standard procedures (i.e., Qiagen kit instructions) as discussed below. The RNA concentrations were standardized to […]. In a PCR tube, RNA (2 μg) in a new Eppendorf tube was diluted with RNase-free water to a 9.5 μL final volume of […] RNA. DNase was used to remove any DNA contamination. A DNase Master Mix was prepared from 1.5 μL/reaction DNase solution (1 unit/μL, Promega), 3 μL/reaction 5× RT buffer (i.e., 250 mM Tris-HCl (pH 8.3), 375 mM KCl, 15 mM MgCl2, and 500 μl 0.1 M DTT; Promega MMLV), and 1 μL/reaction RNase inhibitor solution (RNasin, 40 units/μL, Promega). The DNase Master Mix was added to the standardized RNA samples (5.5 μL/sample). The samples were mixed by agitation and briefly spun down by centrifuge. The samples were heated to 37° C. for 60 min, 80° C. for 5 min, and then cooled to 4° C. The samples were stored on ice until the addition of the next reagents. An RT Reaction Master Mix was prepared from 5 μL/reaction 5× RT buffer, 2 μL/reaction dNTP solution (2.5 mM in each nucleotide), 1 μL/reaction RNase inhibitor solution (RNasin, 40 units/μL, Promega), 1.6 μL/reaction M-MLV reverse transcriptase (200 units/μL, Promega), and 13.4 μL/reaction deionized, RNase-free water. The RT Reaction Master Mix was cooled on ice until use. A 50 μM solution of Random Primer 6 random hexanucleotides (2 μL) was added to each sample. The samples were mixed by agitation and briefly spun down by centrifuge. The samples were heated to 70° C. for 5 min and then cooled to 4° C. The RT Reaction Master Mix (23 μL) was added to each sample. The samples were mixed by agitation and briefly spun down by centrifuge. To convert the RNA to cDNA, the samples were heated to 42° C. for 60 min, 95° C. for 5 min, and then cooled to 4° C. The cDNA product mixture was diluted 5:1 with deionized water (40 μL+160 μL). The samples were run in triplicate, with a methyl-CpG-binding protein 3-like 2 (MBD3L2) target primer and a eukaryotic translation elongation factor 1-alpha (EEF1A) control primer. An qPCR Master Mix was prepared for each primer and stored on ice (4° C.) until use. The qPCR Master Mix included 10 μL/reaction SYBR Green Mix (2×) (ThermoFisher), 1 μL/reaction of the primer mix (i.e., the MBD3L2 PCR Primer mix or the EEF1A Primer mix), and 4 μL/reaction deionized, RNase-free water. To set up the qPCR plate, 15 μL of the appropriate qPCR Master Mix was added to the appropriate wells for each target/primer. After all the targets/primers have been added to the wells, 5 μL of the sample was added to the corresponding wells so that each well is 20 μL total. The plate was covered with a clear sheet. An qPCR run was set up (QuantStudio 5) with the following cycle: […]

[3] = Cell cytotoxicity 50 assay (CC50), MB200 cells, cell titer glo; settings: human
Description: as §1, with “(CC50) MB200 cells were grown until 80% confluent in F10 media supplemented with rhFGF basic (10 ng/ml), 15% fetal bovine serum, 1% penicillin streptomycin, 1% amphotericin B, and 1 μM dexamethasone. Adherent MB200 cells growing on 10 cm plate were then trypsinized with 1 ml of trypsin. Once the cells detached from the plate, F10 media (10 mL) was added, and the cells were strained through a 70 μm cell strainer. The cells were counted using a mixture of 10 μL cell suspension with 10 μL of trypan blue. Once the total number of cells were counted, a dilution of 200 k/mL was prepared, and the cells were seeded with 10 k cells/well in a 96-well plate in triplicate, making sure to avoid seeding cells in the edges of the plate to avoid edge effects. Using a multichannel pipet, the 200 k/mL cell dilution (50 μL/well) was added into wells B2-B11, C2-C11, and D2-D11 in triplicate.” for “(CC50)”

Compound | CC50 at 72 h [1] [µM] | qPCR MBD3L2 Inhib at 11 µM [2] | CC50 at 72 h [3] [µM]
O=C(CCCN1CCCC1=O)Nc1ccc(-c2nc3cc(F)ccc3s2)cc1 [Compound 116] | > 10 | YES | > 10
CC(=O)NCCC(=O)Nc1ccc(-c2nc3cc(C)ccc3s2)cc1 [Compound 53] | > 10 | YES | > 10
CC(=O)NCCCC(=O)N(C)c1ccc(-c2nc3cc(F)ccc3s2)cc1 [Compound 145] | > 10 | YES | > 10
O=C(CCc1nnc[nH]1)Nc1ccc(-c2nc3ccccc3s2)cc1 [Compound 39] | > 10 | YES | > 10
CC(=O)NC(C)CCC(=O)Nc1ccc(-c2nc3ccccc3s2)cc1 (stereo not drawn) [Compound 56] | > 10 | YES | > 10
CC(=O)NCCNC(=O)c1ccc(-c2nc3cc(F)ccc3s2)cc1 [Compound 30] | > 10 | YES | > 10
O=C(CCc1cnc[nH]1)Nc1ccc(-c2nc3ccccc3s2)cc1 [Compound 14] | > 10 | YES | > 10
O=C(CCCc1cccnc1)Nc1ccc(-c2nc3ccccc3s2)nc1 [Compound 156] | > 10 | YES | > 10
O=C(CC1CCCC1)Nc1ccc(-c2nc3ccccc3s2)cc1 [Compound 21] | > 10 | YES | > 10
O=C(CCc1cnn[nH]1)Nc1ccc(-c2nc3ccccc3s2)cc1 [Compound 40] | > 10 | YES | > 10
Cc1ccc2nc(-c3ccc(NC(=O)CC4CCCC4)cc3)sc2c1 [Compound 16] | > 10 | YES | > 10
CC(=O)NCCCC(=O)Nc1ccc(-c2nc3ccccc3s2)cn1 [Compound 49] | > 10 | YES | > 10
O=C(CCCCN1C(=O)CCC1=O)Nc1ccc(-c2nc3ccccc3s2)o1 [Compound 167] | > 10 | YES | > 10
O=C(CCc1cccnc1)Nc1ccc(-c2nc3ccccc3s2)nc1 [Compound 83] | > 10 | YES | > 10
O=C(CCN1C(=O)CCC1=O)Nc1ccc(-c2nc3ccccc3s2)nc1 [Compound 37] | > 10 | YES | > 10
O=C(CCc1cn[nH]c1)Nc1ccc(-c2nc3ccccc3s2)cc1 [Compound 27] | > 10 | YES | > 10

Compound | CC50 at 72 h [1] [µM] | qPCR MBD3L2 Inhib at 11 µM [2] | CC50 at 72 h [3] [µM]
CC(=O)NCCC(=O)Nc1ccc(-c2nc3ccccc3s2)cc1 [Compound 38] | > 10 | YES | > 10
O=C(CCCc1cccnc1)Nc1ccc(Cc2nc3ccccc3s2)cc1 [Compound 60] | > 10 | YES | > 10
CC(=O)NCCCC(=O)Nc1ccc(-c2nc3ccccc3s2)o1 [Compound 76] | > 10 | YES | > 10
CC(=O)NCCCC(=O)Nc1ccc(-c2nc3ccccc3s2)cc1 [Compound 5] | > 10 | YES | > 10
CC(=O)NCCNC(=O)Cc1ccc(-c2nc3cc(F)ccc3s2)cc1 [Compound 111] | > 10 | YES | > 10
CC(=O)NCCCCC(=O)Nc1ccc(-c2nc3ccccc3s2)cc1 [Compound 73] | > 10 | YES | > 10
CN(C(=O)CCCN1C(=O)CCC1=O)c1ccc(-c2nc3ccccc3s2)cc1 [Compound 141] | 1 to 10 | YES | > 10
CN(C(=O)CCN1C(=O)CCC1=O)c1ccc(-c2nc3ccccc3s2)cc1 [Compound 34] | > 10 | YES | > 10
O=C(CCc1cnco1)Nc1ccc(-c2nc3ccccc3s2)cc1 [Compound 33] | > 10 | YES | > 10
CC(=O)NCCCC(=O)Nc1ccc(-c2nc3ccccc3s2)nc1 [Compound 32] | > 10 | YES | > 10
O=C(CCCN1C(=O)CCC1=O)Nc1ccc(-c2nc3ccccc3s2)cc1 [Compound 41] | > 10 | YES | > 10
CC(=O)NCCC(=O)Nc1ccc(-c2nc3cc(F)ccc3s2)cc1 [Compound 44] | > 10 | YES | > 10
O=C(CCc1cnco1)Nc1ccc(-c2nc3cc(F)ccc3s2)cc1 [Compound 65] | > 10 | YES | > 10
CC(=O)NCCCC(=O)Nc1ccc(C(C)(C)c2nc3ccccc3s2)cc1 [Compound 87] | > 10 | YES | > 10
O=C(CCCc1cnco1)NC1CCC(c2nc3ccccc3s2)CC1 (stereo not drawn) [Compound 67] | > 10 | YES | > 10
CC(=O)NC(C)(C)/C=C/C(=O)Nc1ccc(-c2nc3ccccc3s2)cc1 [Compound 104] | > 10 | YES | > 10
